Data: patent publication US4450170A, “Treatment of diarrhoea with 2-aminoimidazoline derivatives” (Beecham Group Limited, priority 1980, dated 1984)
Where “and” joins values, the source holds several entries; their conditions need not be identical. Identical values can stand only once. Counter-ions that a name gives are not always drawn.

What was measured:
[1] = tested on: fluid secretion caused by the enterotoxin(s) present in culture filtrate from an enteropathogenic strain of E. coli; experiment: animal or person; type: in vivo, infant mice; settings: for activity in the reduction of fluid secretion (in words): mouse, in vivo
[2] = tested on: diarrhoea induced by culture filtrate from an enteropathogenic strain of E. coli; design: species or system 2-4 day old piglets; settings: in vivo, po
E. coli P16 = experiment: Inhibition of Diarrhoea Resulting from E. coli Infection (piglets); type: in vivo, colostrum deprived piglets; settings: Group B, Neomycin 30 mg/Kg po
Description: 2-4 day old piglets were dosed with the compound orally 45 mins prior to oral challenge with 25 ml of culture filtrate prepared from an enteropathogenic strain of E. coli. Control animals received drug vehicle 45 mins prior to challenge with a similar volume of material. […] After 6 hours observation some piglets were given a second dose of drug (or placebo) and observations were continued for a further six hours. The percentage inhibition in treated animals was determined as: [formula]
Colostrum deprived piglets were infected with 5 ml of an overnight culture containing 10^8 -10^9 viable E. coli P16/ml. The following day, piglets were matched by weight and scour score and then treated and observed for 6 hours in a similar manner to toxin challenged piglets, as described above.

Compound | inhibition in vivo at 10 mg/kg ([1]; Mus musculus, po) [%] | inhibition in vivo at 50 mg/kg ([1]; Mus musculus, po) [%] | inhibition in vivo at 200 mg/kg ([1]; Mus musculus, po) [%] | other results
Nc1cc(Cl)c(NC2=NCCN2)c(Cl)c1 [p-Amino clonidine dihydrochloride, p-amino Clonidine dihydrochloride] | 59 | 78 | – | ED50 ([1]; Mus musculus, po, read-out: calculated ED50): 0.25 mg/kg; activity in the reduction of fluid secretion (in words) [1]: high level of activity; % inhibition of scour [2]: 79%; Mean Scour Score ± SEM, drug treated [2]: 0.4 ± 0.2
Clc1cc(N=C2NCCN2)cc(Cl)c1NC1=NCCN1 [Example 16, 2-(2,6-dichloro-4-imidazolino-2-iminophenylimino)imidazolidine] | – | – | – | inhibition in vivo at 100 mg/kg ([1]; Mus musculus, po): 29%; inhibition in vivo at 400 mg/kg ([1]; Mus musculus, po): 41%
Neomycin | – | – | – | % inhibition of scour (E. coli P16): 16%; Mean Scour Score ± SEM (E. coli P16; placebo 2.9 ± 0.1): 2.4 ± 0.2; Mortality over 7 days (E. coli P16; placebo 25%): 0%
NCc1cc(Cl)c(N=C2NCCN2)c(Cl)c1 [Example 14, 2-(4-aminomethyl-2,6-dichlorophenylimino)imidazolidine] | – | 38 | 39 | –
Nc1cc(Br)c(NC2=NCCN2)c(Br)c1 [Example 12, 2-(4-amino-2,6-dibromophenylimino)imidazolidine] | 48 | 65 | 85 | –
CCN(CC)Cc1cc(Cl)c(N=C2NCCN2)c(Cl)c1 [Example 15, 2-(2,6-dichloro-4-diethylaminomethylphenylimino)imidazolidine] | – | 28 | 37 | inhibition in vivo at 500 mg/kg ([1]; Mus musculus, po): 42%
CN(C1=NCCN1)c1c(Cl)cc(N)cc1Cl [R5 H, R6 CH3, Ra p-NH2, Rb o-Cl, R11 Cl] | 37 | 62 | 72 | –
CN(C)C(=O)C(CCN1CCC(O)(c2ccc(Cl)cc2)CC1)(c1ccccc1)c1ccccc1 [Loperamide, reference compound] | – | – | – | activity in the reduction of fluid secretion (in words) [1]: considerably less active than the p-amino Clonidine dihydrochloride
Cc1cc(N)cc(C)c1N=C1NCCN1 [Example 13, 2-(4-amino-2,6-dimethylphenylimino)imidazolidine] | 66 | 54 | 69 | % inhibition of scour [2]: 78% and 69% and 62%; Mean Scour Score ± SEM, drug treated [2]: 0.5 ± 0.2 and 0.6 ± 0.3 and 0.6 ± 0.2
CNC(=Nc1cc(Cl)c(NC2=NCCN2)c(Cl)c1)NC [Example 17, 2-[2,6-dichloro-4-(1,3-dimethylguanidino)phenylimino]imidazolidine] | 33 | 37 | 53 | –
CCNc1cc(Cl)c(NC2=NCCN2)c(Cl)c1 [R5 H, R6 H, Ra p-NHEt, Rb o-Cl, R11 Cl] | 59 | 79 | 97 | –
